In PMC12446476 (Nature Communications, 2025):
Converted amounts (≈) assume the structure as drawn. Where two headings read alike, the source gives them in different places.

Tested on: N. gonorrhoeae
Assay: MIC determination, Etest
Type: cell-based, Neisseria gonorrhoeae
Conditions: for MIC: Neisseria gonorrhoeae, comparator antibiotics, read-out: Minimum inhibitory concentration
From the text: The 2024 WHO N. gonorrhoeae reference strains were used for quality control. Only whole MIC doubling dilutions are reported. Clinical breakpoints or the epidemiological cutoff (ECOFF, to indicate azithromycin resistance) from EUCAST (v14.0, https://www.eucast.org/clinical_breakpoints) were used to classify isolates as antimicrobial susceptible or resistant. […] Two times the standard inoculum defined by CLSI was used to establish consistent growth in untreated control samples for some strains. In vitro time-kill assays were performed according to CLSI guidelines[65] using Columbia Broth (BD Difco) supplemented with 1% IsoVitaleX Enrichment (BD). Viable bacterial counts were generated by plating 10-fold serially diluted samples on GC agar plates containing 1% IsoVitaleX Enrichment (BD).

MIC (clinical N. gonorrhoeae isolate 50, Sweden 2023): 16 µg/mL (≈ 48.1 µM)
MIC (clinical N. gonorrhoeae isolate 51, Sweden 2023): 8 µg/mL (≈ 24.1 µM)
MIC (clinical N. gonorrhoeae isolate 52, Sweden 2023): 16 µg/mL (≈ 48.1 µM)
MIC (clinical N. gonorrhoeae isolate 53, Sweden 2023): 8 µg/mL (≈ 24.1 µM)
MIC (clinical N. gonorrhoeae isolate 54, Sweden 2023): 16 µg/mL (≈ 48.1 µM)
MIC (clinical N. gonorrhoeae isolate 55, Sweden 2023): 16 µg/mL (≈ 48.1 µM)
MIC (clinical N. gonorrhoeae isolate 56, Sweden 2023): 8 µg/mL (≈ 24.1 µM)
MIC (clinical N. gonorrhoeae isolate 57, Sweden 2023): 8 µg/mL (≈ 24.1 µM)
MIC (clinical N. gonorrhoeae isolate 58, Sweden 2023): 8 µg/mL (≈ 24.1 µM)
MIC (clinical N. gonorrhoeae isolate 59, Sweden 2023): 8 µg/mL (≈ 24.1 µM)
MIC (clinical N. gonorrhoeae isolate 60, Sweden 2023): 16 µg/mL (≈ 48.1 µM)
MIC (clinical N. gonorrhoeae isolate 61, Sweden 2023): 8 µg/mL (≈ 24.1 µM)
MIC (clinical N. gonorrhoeae isolate 62, Sweden 2023): 8 µg/mL (≈ 24.1 µM)
MIC (clinical N. gonorrhoeae isolate 63, Sweden 2023): 16 µg/mL (≈ 48.1 µM)
MIC (clinical N. gonorrhoeae isolate 64, Sweden 2023): 16 µg/mL (≈ 48.1 µM)
MIC (clinical N. gonorrhoeae isolate 65, Sweden 2023): 16 µg/mL (≈ 48.1 µM)
MIC (clinical N. gonorrhoeae isolate 66, Sweden 2023): 16 µg/mL (≈ 48.1 µM)
MIC (clinical N. gonorrhoeae isolate 67, Sweden 2023): 16 µg/mL (≈ 48.1 µM)
MIC (clinical N. gonorrhoeae isolate 68, Sweden 2023): 16 µg/mL (≈ 48.1 µM)
MIC (clinical N. gonorrhoeae isolate 69, Sweden 2023): 16 µg/mL (≈ 48.1 µM)
MIC (clinical N. gonorrhoeae isolate 70, Sweden 2023): 8 µg/mL (≈ 24.1 µM)
MIC (clinical N. gonorrhoeae isolate 71, Sweden 2023): 16 µg/mL (≈ 48.1 µM)
MIC (clinical N. gonorrhoeae isolate 72, Sweden 2023): 8 µg/mL (≈ 24.1 µM)
MIC (clinical N. gonorrhoeae isolate 73, Sweden 2023): 16 µg/mL (≈ 48.1 µM)
MIC (clinical N. gonorrhoeae isolate 74, Sweden 2023): 16 µg/mL (≈ 48.1 µM)
MIC (clinical N. gonorrhoeae isolate 75, Sweden 2023): 8 µg/mL (≈ 24.1 µM)
MIC (clinical N. gonorrhoeae isolate 76, Sweden 2023): 8 µg/mL (≈ 24.1 µM)
MIC (clinical N. gonorrhoeae isolate 77, Sweden 2023): 16 µg/mL (≈ 48.1 µM)
MIC (clinical N. gonorrhoeae isolate 78, Sweden 2023): 16 µg/mL (≈ 48.1 µM)
MIC (clinical N. gonorrhoeae isolate 79, Sweden 2023): 8 µg/mL (≈ 24.1 µM)
MIC (clinical N. gonorrhoeae isolate 80, Sweden 2023): 16 µg/mL (≈ 48.1 µM)
MIC (clinical N. gonorrhoeae isolate 81, Sweden 2023): 16 µg/mL (≈ 48.1 µM)
MIC (clinical N. gonorrhoeae isolate 82, Sweden 2023): 16 µg/mL (≈ 48.1 µM)
MIC (clinical N. gonorrhoeae isolate 83, Sweden 2023): 8 µg/mL (≈ 24.1 µM)
MIC (clinical N. gonorrhoeae isolate 84, Sweden 2023): 16 µg/mL (≈ 48.1 µM)
MIC (clinical N. gonorrhoeae isolate 85, Sweden 2023): 8 µg/mL (≈ 24.1 µM)
MIC (clinical N. gonorrhoeae isolate 86, Sweden 2023): 8 µg/mL (≈ 24.1 µM)
MIC (clinical N. gonorrhoeae isolate 87, Sweden 2023): 8 µg/mL (≈ 24.1 µM)
MIC (clinical N. gonorrhoeae isolate 88, Sweden 2023): 16 µg/mL (≈ 48.1 µM)
MIC (clinical N. gonorrhoeae isolate 89, Sweden 2023): 16 µg/mL (≈ 48.1 µM)
MIC (clinical N. gonorrhoeae isolate 90, Sweden 2023): 16 µg/mL (≈ 48.1 µM)
MIC (clinical N. gonorrhoeae isolate 91, Sweden 2023): 4 µg/mL (≈ 12 µM)
MIC (clinical N. gonorrhoeae isolate 92, Sweden 2023): 8 µg/mL (≈ 24.1 µM)
MIC (clinical N. gonorrhoeae isolate 93, Sweden 2023): 16 µg/mL (≈ 48.1 µM)
MIC (clinical N. gonorrhoeae isolate 94, Sweden 2023): 8 µg/mL (≈ 24.1 µM)
MIC (clinical N. gonorrhoeae isolate 95, Sweden 2023): 16 µg/mL (≈ 48.1 µM)
MIC (clinical N. gonorrhoeae isolate 96, Sweden 2023): 8 µg/mL (≈ 24.1 µM)
MIC (clinical N. gonorrhoeae isolate 97, Sweden 2023): 16 µg/mL (≈ 48.1 µM)
MIC (clinical N. gonorrhoeae isolate 98, Sweden 2023): 4 µg/mL (≈ 12 µM)
MIC (clinical N. gonorrhoeae isolate 99, Sweden 2023): 4 µg/mL (≈ 12 µM)
MIC (clinical N. gonorrhoeae isolate 100, Sweden 2023): 16 µg/mL (≈ 48.1 µM)
SMILES: CN[C@@H]1[C@H](O)[C@H](NC)[C@H]2O[C@@]3(O)C(=O)C[C@@H](C)O[C@H]3O[C@@H]2[C@H]1O [Spectinomycin]
AMR phenotype (susceptibility category, EUCAST) (WHO F): S
AMR phenotype (susceptibility category, EUCAST) (WHO H): S
AMR phenotype (susceptibility category, EUCAST) (WHO K): S
AMR phenotype (susceptibility category, EUCAST) (WHO L): S
AMR phenotype (susceptibility category, EUCAST) (WHO M): S
AMR phenotype (susceptibility category, EUCAST) (WHO O): R
AMR phenotype (susceptibility category, EUCAST) (WHO P): S
AMR phenotype (susceptibility category, EUCAST) (WHO Q): S
AMR phenotype (susceptibility category, EUCAST) (WHO R): S
AMR phenotype (susceptibility category, EUCAST) (WHO S2): S
AMR phenotype (susceptibility category, EUCAST) (WHO U): S
AMR phenotype (susceptibility category, EUCAST) (WHO V): S
AMR phenotype (susceptibility category, EUCAST) (WHO X): S
AMR phenotype (susceptibility category, EUCAST) (WHO Y): S
AMR phenotype (susceptibility category, EUCAST) (WHO Z): S
